The record followed here is PubChem BioAssay AID743417 (Broad Institute, 2014).

Each structure is given as a SMILES string. Records with an inconclusive call do not appear.

For this assay, the system named is Clone20 osteoblast Shn3 3'UTR firefly luciferase, 24 h. Description: Schnurri-3 3'UTR-luciferase signal suppressors – cell-based, Clone20 osteoblasts, luminescence, dry powder, set 2, dose response (AID 743417).
Regarding `O=C(Sc1cccc2cccnc12)c1ccccc1Br`, the AC50 – broadly, the concentration at which the activity in the assay is half-maximal – is 383 nM.
Next, `COc1ccc(-c2nc(CN3CCN(c4ncnc5ccccc45)CC3)c(C)o2)c(OC)c1`: 6380 nM; `Fc1ccc(/C=C2\CCCC3=C2Nc2ncnn2C3c2ccc(F)cc2)cc1` (centres undefined): 8470 nM; `CCC(=O)NC(c1ccc(C)cc1)c1ccc2cccnc2c1O` (centres undefined): 704 nM.
Next, `CCOC(=O)C1CCN(C(=O)c2sc3nc(C)nc(N4CCC(C)CC4)c3c2C)CC1`: 5260 nM; `O=C1C=CC(=O)N1CCNc1ncc(C(F)(F)F)cc1Cl`: 947 nM.
Next, `S=C(NNc1ccnc2cc(Cl)ccc12)Nc1ccc(Cl)cc1Cl`: 4900 nM; `COc1ccc(NC(=O)c2sc3ncnc(N4CCN(c5ccccn5)CC4)c3c2C)cc1Cl`: 4080 nM; `C=CCn1c(-c2ccc(S(=O)(=O)N3CCOCC3)cc2)csc1=Nc1ccccc1`: 1520 nM.
`Cc1nc(SCC(=O)Nc2nc3ccccc3s2)c(C#N)c(C)c1C`: the concentration at half-maximal activity (AC50) is under 260 nM.
Next, `O=C(/C(=C/c1ccc(Cl)cc1)c1nc2ccccc2[nH]1)c1cccs1`: 2660 nM; `Cc1ccc2c(c1)nnn2C1CCN(S(=O)(=O)c2ccc(C(=O)N3C(C)CCCC3C)cc2)CC1` (centres undefined): 695 nM; `Cc1ccc(S(=O)(=O)N2CCN(c3ncnc4ccccc34)CC2)cc1`: 1560 nM.
On to `COc1ccc([C@H]2CC(=O)C=C(c3ccc(F)cc3OCc3ccccc3)C2)cc1OC`, for which the AC50 is 7360 nM.
Next, `CCCC(=O)NC(c1ccc(Cl)cc1)c1ccc2cccnc2c1O` (centres undefined): 937 nM.
Next, `CCCCCn1c(=O)c(C(=O)NC(C)c2ccccc2)c(O)c2ccccc21` (centres undefined): 11700 nM; `COc1ccc(C(NC(C)=O)c2cc(Cl)c3cccnc3c2O)cc1OC` (centres undefined): 3450 nM; `CC(C)(C)OC(=O)NCc1ccc(CNC(=O)c2nc[nH]c2C(=O)NCc2ccc(CNC(=O)OC(C)(C)C)cc2)cc1`: 5890 nM.
Next, `O=C1CSc2ccc(C(=O)Nc3cccc(S(=O)(=O)Nc4ccc(Br)cc4)c3)cc2N1`: 3080 nM.
On to `CCCn1c(C)cc(C(=O)CN2C(=O)c3ccccc3S2(=O)=O)c1C`, for which the AC50 is 2980 nM.
Next, `O=C(Cn1cc(C(=O)c2ccco2)c2ccccc21)Nc1ccccc1F`: 2600 nM; `Fc1ccc(C(OCCN2CCN(CCCc3ccccc3)CC2)c2ccc(F)cc2)cc1`: 6170 nM.
Consider `O=C(Nc1nc2cc3c(cc2s1)OCCO3)C1=COCCO1`, for which the AC50 was 2170 nM.
Next, `CC(=O)c1ccc(N2CCC(c3cc(-c4ccc(Cl)cc4)n[nH]3)CC2)c([N+](=O)[O-])c1`: 5000 nM; `CCCC(=O)NC(c1ccc(OC)cc1)c1ccc2cccnc2c1O` (centres undefined): 1180 nM; `O=C1CCc2cccc(O)c2N1`: 12200 nM.
Next, `NC(=O)c1cc(N2C(=O)C=CC2=O)ccc1Cl`: 11300 nM; `O=S(=O)(c1ccc2c(c1)OCCO2)N1CCN(c2ncnc3sccc23)CC1`: 1450 nM; `CCCCc1ccc(NC(=O)C(=O)NCCN2CCN(Cc3ccc([N+](=O)[O-])cc3)CC2)cc1`: 1130 nM.
Next, `Cn1cc([N+](=O)[O-])c(C(=O)Nc2cc(Oc3ccccc3)cc([N+](=O)[O-])c2)n1`: 5410 nM.
`CN1C(=O)c2cccc(NCCCCCCN3C(=O)c4ccccc4C3=O)c2C1=O`: the AC50 is 5570 nM.
Next, `Cc1cccc(NC(=O)Cn2cc(C(=O)C3CC3)c3ccccc32)c1C`: 2390 nM; `OC(c1cc(-c2ccc(C(F)(F)F)cc2)nc(C(F)(F)F)c1)C1CCCCN1` (centres undefined): 4730 nM.
Consider `C=CCNc1nc2c(c(=O)n(C)c(=O)n2C)n1CCCCCC`, for which the AC50 is 761 nM.
Next, `O=C(c1ccccc1)C(CN1CCCCC1)c1ccccc1` (centres undefined): 2410 nM; `CC(C)C(=O)NC(c1ccco1)c1ccc2cccnc2c1O` (centres undefined): 2050 nM.
Next, `O=S(=O)(NCc1ccncc1)c1ccc(F)c(F)c1`: 2090 nM.
Next, `C=CCOC(=O)c1[nH]c2c(c1C)C(=O)CC(c1cc(OC)c(OC)c(OC)c1)C2` (centres undefined): 1830 nM; `NC(Cc1ccc(Cl)cc1)c1csc(NC(=O)NCC2CCCCC2)n1` (centres undefined): 6580 nM; `Cc1cc(Nc2cccc(Cl)c2)nc(NCc2ccccc2)n1`: 1640 nM.
As to `Cc1ccc(Nc2nc(NCc3ccco3)c3ccccc3n2)cc1`, the AC50 is 9840 nM.
Next, `Nc1nc(N)c2cc(S(=O)(=O)c3cccc(C(F)(F)F)c3)ccc2n1`: 5220 nM; `CN(c1ccccc1)c1ccc(/C=C/[N+](=O)[O-])cc1`: 5790 nM; `CSc1nnc(NC(=O)c2nc(S(=O)(=O)Cc3ccccc3)ncc2Cl)s1`: 1350 nM.
For the molecule `CC1Sc2ccc(S(=O)(=O)N3CCC(C(=O)Nc4ccc(Cl)cc4)CC3)cc2NC1=O` (centres undefined), the AC50 is 2420 nM.
Regarding `CC(Oc1ccc(F)cc1)C(=O)N(CCC1=CCCCC1)c1c(N)n(Cc2ccccc2)c(=O)[nH]c1=O` (centres undefined), the AC50 is 7990 nM.
Next, `O=C(COC(=O)c1n[nH]c2ccccc12)Nc1ccc(S(=O)(=O)N2CCCC2)cc1`: 5330 nM.
Take `Oc1cc(-c2cccnc2)cc2cccnc12`: the AC50 was 9270 nM.
Next, `COC(=O)[C@]1(C)CCC[C@@]2(C)C3CC[C@@]4(C)C[C@]3(CCC21)CC(=O)N4Cc1ccc(OC)cc1` (some centres undefined): 8160 nM; `N#Cc1cc(-c2ccccc2)[nH]c1-c1nccc2ccccc12`: 3420 nM; `Fc1ccc(NC(=S)N2CCCN(c3ccc(C(F)(F)F)cn3)CC2)c(F)c1`: 3710 nM.
Next, `COc1ccc(C(=O)C(CN2CCOCC2)c2ccccc2)cc1` (centres undefined): 5590 nM; `O=C(Nc1cc2c3c(c1)C1CCCC1CN3CC1CCCC21)c1ccc([N+](=O)[O-])cc1` (centres undefined): 2200 nM; `COc1cccc(-c2nc(NC3CCCC3)c3ccccc3n2)c1O`: 25000 nM.
Next, `CC(C)Cn1c(N)c(C(=O)COC(=O)C2Cc3ccccc3CN2S(C)(=O)=O)c(=O)n(C)c1=O` (centres undefined): 720 nM; `O=c1[nH]c2ccccc2n1C1CCN(C(CCc2ccccc2)c2nnnn2Cc2ccccc2)CC1` (centres undefined): 1230 nM; `C=C1C(=O)[C@]23C[C@H]1CCC2[C@@]1(C)C(C[C@@H]3O)[C@](C)(C(=O)OC)CC[C@@H]1O` (some centres undefined): 2580 nM.
As for `O=C(Nc1ccccc1)C1=C(c2ccccc2)S(=O)(=O)CCS1(=O)=O`, the AC50 is 1370 nM.
Turning to `Cc1cc(F)ccc1S(=O)(=O)Nc1ccccc1C(=O)Nc1ccccc1-c1nc2ccccc2[nH]1`, the AC50 is 12100 nM.
Next, `Cc1[nH]nc2ccc(-c3cncc(OC[C@@H](N)Cc4c[nH]c5ccccc45)c3)cc12`: 1770 nM; `O=C(c1cccc(S(=O)(=O)N2CCN(c3ccccc3)CC2)c1)N1CCCC(C(F)(F)F)C1` (centres undefined): 2680 nM.
`Cc1c(CCOC(=O)CC23CC4CC(CC(C4)C2)C3)sc[n+]1CC(=O)c1ccc(Br)cc1`: the AC50 is 12900 nM.
As to `COc1ccc(OC)c(NC(=O)c2cc(-c3cc(F)ccc3OCC3CCCO3)n[nH]2)c1` (centres undefined), the concentration at half-maximal activity (AC50) was 10500 nM.
On to `CCN(CC)C(=S)Sc1c(-c2ccccc2)c2cc(Cl)ccc2[nH]c1=O`, for which the AC50 was 27000 nM.
Next, `Cc1cc(N2CCCC2=O)cc(C)c1S(=O)(=O)NCCOc1ccc(C(C)(C)C)cc1`: 1150 nM.
Consider `CCN(CC)S(=O)(=O)c1ccc(NC(=O)Nc2cccc(C(F)(F)F)c2)cc1`, for which the AC50 is 5600 nM.
Next, `Cc1cc(C)n2nc(SCc3cccc(S(=O)(=O)N(C)C)c3)nc2n1`: 14000 nM; `C=CCOc1nc2c(c(=O)n(C)c(=O)n2C)n1Cc1ccc(Cl)cc1Cl`: 2150 nM.
Next, `CCCC(=O)NC(c1cccs1)c1cc(Cl)c2cccnc2c1O` (centres undefined): 3160 nM; `COCC1CCN(C(=O)c2cc(COc3ccc4ncccc4c3)on2)CC1`: 2700 nM; `CCn1cc(CN(C)S(=O)(=O)c2ccc3ccccc3c2)c(C)n1`: 1560 nM.
For `CCCC(=O)NC(c1ccc(Cl)cc1Cl)c1ccc2cccnc2c1O` (centres undefined), the AC50 is 638 nM.
Next, `O=C(OCn1ncc(Cl)c(Cl)c1=O)c1ccccc1Cl`: 3560 nM.
Next, `O=[N+]([O-])c1c(NCCCO)cc(Sc2nc3ccccc3s2)c2nonc12`: 1580 nM; `COc1ccccc1NC(=O)Cn1c(C)cc(=O)c2cccc(OC)c21`: 3160 nM; `Cn1c(=O)[nH]c(=O)c2c1nc([N+](=O)[O-])n2Cc1ccccc1`: 1900 nM.
Next, `c1ccc(CNc2c(-c3cccc(SC4CCCCC4)c3)nc3ccccn23)cc1`: 3460 nM; `CS(=O)(=O)c1nc(-c2ccc(Br)cc2)cc(-c2ccccc2)c1C#N`: 4720 nM.
For the molecule `CCCCC(=O)NC(c1ccc(OC)c(OC)c1)c1ccc2cccnc2c1O` (centres undefined), the AC50 was 1360 nM.
Next, `Cc1cccc(CCN2C(N(C)C)=NC[C@@H]2CC(C)C)c1`: 1450 nM; `CC(Sc1nc2ccccc2c(=O)n1C)C(=O)Nc1ccc2c(c1)OCCO2` (centres undefined): 1940 nM; `Cc1ccc(NC(=O)Cc2nn(C)c(=O)c3ccccc23)cc1F`: 730 nM.
Next, `COc1cc(C)c(NC(=O)COc2cccc3c2OC(C)(C)C3)cc1OC`: 7060 nM.
Next, `Cc1ccc(Oc2ccc(OCC(=O)Nc3ccncc3)cc2)cc1`: 1550 nM.
Consider `CCOC(=O)CC1CCCCN1C(=O)c1cc(COc2cccc3cnccc23)on1` (centres undefined), for which the AC50 was 713 nM.
Next, `CSc1ccc(CN(C)C(=O)c2cccc(S(=O)(=O)N3CCN(Cc4ccccc4)CC3)c2)cc1`: 2890 nM; `Cc1ccc(N/C(N)=N/c2nc(C)cc(N3CCCCC3)n2)c(C)c1`: 891 nM.
Next, `N=C1S/C(=C\c2ccc(-c3cccc(Cl)c3)o2)C(=O)N1c1nccs1`: 2820 nM; `Cc1ccc(NC(=O)c2ccc(Cl)c(N3C(=O)C=CC3=O)c2)cc1`: 1600 nM.
`CCc1ccc(NC(=O)C2CCN(S(=O)(=O)c3ccc4c(c3)NC(=O)C(C)S4)CC2)cc1` (centres undefined): the AC50 was 7080 nM.
Turning to `CC(C)=CCc1cc([C@@H]2COc3c(ccc4c3C=CC(C)(C)O4)C2)c(O)cc1O`, the AC50 is 7540 nM.
Next, `O=C(Nc1ccc(Cc2ccncc2)cc1)c1ccc([N+](=O)[O-])o1`: 2710 nM; `CC(=O)c1cn(Cc2ccccc2C#N)c2ccccc12`: 527 nM; `COC(=O)c1ccc(NC(=O)c2nc(S(=O)(=O)Cc3cccc(C)c3)ncc2Cl)cc1`: 1350 nM.
